Laboratory results reported in US11053219B2, “Substituted pyridines as TYK2 inhibitors” (FronThera U.S. Pharmaceuticals LLC, priority 2018, dated 2021).
Like-named read-outs stand apart in the source and are kept apart here.

How the values were obtained:
TYK2 (JH2 domain) = TYK2 (JH2 domain) (Homo sapiens (Human), UniProt P29597); assay: TYK2 JH2 domain binding assay (DiscoverX KINOMEscan); details: 11-point 3-fold dilution, duplicate
[1] = test system: IL12-induced p-STAT4 in human PBMC; assay: IL-12 induced pSTAT4 in human PBMC; assay type: cell-based; details: read-out: p-STAT4 IC50
[2] = test system: INFα induced pSTAT5 in human PBMC; assay: INFα induced pSTAT5 in human PBMC; assay type: cell-based; details: read-out: p-STAT5 IC50

TYK2 (JH2 domain), sequence (P29597 589-875): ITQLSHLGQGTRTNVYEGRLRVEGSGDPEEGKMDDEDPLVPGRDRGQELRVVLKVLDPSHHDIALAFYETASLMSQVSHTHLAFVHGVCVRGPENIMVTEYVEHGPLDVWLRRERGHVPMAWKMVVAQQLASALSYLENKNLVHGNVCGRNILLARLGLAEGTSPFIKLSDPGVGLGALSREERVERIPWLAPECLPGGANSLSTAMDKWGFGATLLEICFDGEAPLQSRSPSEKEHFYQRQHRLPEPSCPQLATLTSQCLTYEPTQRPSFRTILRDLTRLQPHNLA

Kd (TYK2 (JH2 domain)) [nM] | Structure (SMILES) | IC50 ([1]; Homo sapiens, PBMC) [nM] | IC50 ([2]; human PBMC, INFα 5000 units/ml) [nM] | IC50 ([1]; human PBMC, IL-12 10 ng/ml) [nM] | IC50 ([2]; Homo sapiens, PBMC) [nM]
≤ 1 | [2H]C([2H])([2H])NC(=O)c1nnc(N2CCN(C3CC(F)(F)C3)C2=O)cc1Nc1cccc(-c2ncn(C)n2)c1OC [Example 10, 6-[3-(3,3-difluorocyclobutyl)-2-oxo-imidazolidin-1-yl]-4-[2-methoxy-3-(1-methyl-1,2,4-triazol-3-yl)anilino]-N-(trideuteriomethyl)pyridazine-3-carboxamide] | – | < 100 | < 100 | –
≤ 1 | [2H]C([2H])([2H])NC(=O)c1nnc(N2CCN(C3CCC3)C2=O)cc1Nc1cccc(-c2ncn(C)n2)c1OC [Example 11, 6-(3-cyclobutyl-2-oxo-imidazolidin-1-yl)-4-[2-methoxy-3-(1-methyl-1,2,4-triazol-3-yl)anilino]-N-(trideuteriomethyl)pyridazine-3-carboxamide] | – | < 100 | < 100 | –
≤ 1 | [2H]C([2H])([2H])NC(=O)c1nnc(N2CCN(C3(C)COC3)C2=O)cc1Nc1cccc(-c2ncn(C)n2)c1OC [Example 16, 4-[2-methoxy-3-(1-methyl-1,2,4-triazol-3-yl)anilino]-6-[3-(3-methyloxetan-3-yl)-2-oxo-imidazolidin-1-yl]-N-(trideuteriomethyl)pyridazine-3-carboxamide] | – | < 100 | < 100 | –
– | COc1c(Nc2cc(NC(=O)C3CC3)ncc2C(=O)C2CC2)cccc1-c1ncn(C)n1 [Example 27] | < 100 | – | – | < 100
≤ 1 | [2H]C([2H])([2H])NC(=O)c1nnc(NC(=O)N2CC(C)C2)cc1Nc1cccc(-c2ncn(C)n2)c1OC [Example 49] | – | < 100 | < 100 | –
≤ 1 | COc1c(Nc2cc(NC(=O)C3CC3)ncc2C(=O)C2CC2)cccc1-c1nnn(C)n1 [Example 51] | – | < 100 | < 100 | –
– | [2H]C([2H])([2H])n1cnc(-c2cccc(Nc3cc(NC(=O)C4CC4)ncc3C(=O)C3CC3)c2OC)n1 [Example 54] | – | < 100 | < 100 | –
≤ 1 | [2H]C([2H])([2H])NC(=O)c1nnc(N2CCN(C(C)(C)C)C2=O)cc1Nc1cccc(-c2ncn(C)n2)c1OC [Example 89] | – | < 100 | < 100 | –

Structure (SMILES) | Kd (TYK2 (JH2 domain)) [nM] | IC50 ([1]; Homo sapiens, PBMC) [nM] | IC50 ([2]; human PBMC, INFα 5000 units/ml) [nM] | IC50 ([1]; human PBMC, IL-12 10 ng/ml) [nM] | IC50 ([2]; Homo sapiens, PBMC) [nM]
[2H]C([2H])([2H])NC(=O)c1nnc(N2CCN(C(C)C)C2=O)cc1Nc1cccc(-c2ncn(C)n2)c1OC [Example 6, 6-(3-isopropyl-2-oxo-imidazolidin-1-yl)-4-[2-methoxy-3-(1-methyl-1,2,4-triazol-3-yl)anilino]-N-(trideuteriomethyl)pyridazine-3-carboxamide] | ≤ 1 | < 100 | < 100 | – | –
[2H]C([2H])([2H])NC(=O)c1nnc(N2CCN(C(C)C)C2=O)cc1Nc1cccc(-c2ncn(C)n2)c1OC([2H])([2H])[2H] [Example 14, 6-(3-isopropyl-2-oxo-imidazolidin-1-yl)-4-[3-(1-methyl-1,2,4-triazol-3-yl)-2-(trideuteriomethoxy)anilino]-N-(trideuteriomethyl)pyridazine-3-carboxamide] | ≤ 1 | – | < 100 | < 100 | –
[2H]C([2H])([2H])NC(=O)c1nnc(N2CCN(C(C)C)C2=O)cc1Nc1cccc(-c2ncn(C([2H])([2H])[2H])n2)c1OC [Example 15, 6-(3-isopropyl-2-oxo-imidazolidin-1-yl)-4-[2-methoxy-3-[1-(trideuteriomethyl)-1,2,4-triazol-3-yl]anilino]-N-(trideuteriomethyl)pyridazine-3-carboxamide] | ≤ 1 | – | < 100 | < 100 | –
COc1c(Nc2cc(Nc3ccccn3)ncc2C(=O)C2CC2)cccc1-c1ncn(C)n1 [Example 37] | ≤ 1 | – | < 100 | < 100 | –
[2H]C([2H])([2H])NC(=O)c1nnc(N2CCN(C(C([2H])([2H])[2H])C([2H])([2H])[2H])C2=O)cc1Nc1cccc(-c2ncn(C)n2)c1OC [Example 103] | ≤ 1 | – | – | < 100 | –
